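Compound exposure: 48 hours, 5 concentrations, 96-well plates. GI50: concentration for 50% inhibition of growth. TGI is the concentration that stops growth completely.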
Experiments:
Experiment in all cases: NCI tumour cell line growth inhibition, 48 h
[1] = system: EKVX NSCLC
[2] = system: HCT-15 colon
[3] = system: HL-60(TB) leukemia
[4] = system: HT29 colon
[5] = system: NCI-H226 lung
[6] = system: PC-3 prostate
[7] = system: SK-OV-3 ovarian
[8] = system: T-47D breast
[9] = system: UACC-62 melanoma
[10] = system: UO-31 renal

Structure (SMILES) | TGI [1] [µM] | TGI [2] [µM] | TGI [3] [µM] | TGI [4] [µM] | TGI [5] [µM] | TGI [6] [µM] | TGI [7] [µM] | TGI [8] [µM] | TGI [9] [µM] | TGI [10] [µM] | GI50 [1] [µM] | GI50 [2] [µM] | GI50 [3] [µM] | GI50 [4] [µM] | GI50 [5] [µM] | GI50 [6] [µM] | GI50 [7] [µM] | GI50 [9] [µM] | GI50 [10] [µM] | GI50 [8] [µM]
NC(Cc1[nH]nc2ccccc12)C(=O)O (stereo not drawn) | > 100 | > 100 | > 100 | > 100 | > 100 | > 100 | > 100 | > 100 | > 100 | > 100 |  |  |  |  |  |  |  |  |  | 
Nc1c(S(N)(=O)=O)cc(S(N)(=O)=O)cc1S(N)(=O)=O | > 100 | > 100 |  | > 100 | > 100 | > 100 | > 100 | > 100 | > 100 | > 100 |  |  |  |  |  |  |  |  |  | 
COc1ccc2c(c1)-c1c(c3cc(OC)ccc3n1CCN(C)C)CC2 |  | 28.9 |  | 19.1 | 30 | 25.9 | 37.1 | 41 | 22.8 | 23.1 |  |  |  |  |  |  |  |  |  | 
COC(=O)C1=C(C(=O)OC)SC(=C2SC3=C(SC(=C4SCCS4)S3)S2)S1 | > 100 |  | > 100 | > 100 | > 100 | > 100 | > 100 | > 100 | > 100 | > 100 |  |  |  |  |  |  |  |  |  | 
Oc1c(OCc2nnc(CCCCCCCCc3nnc(COc4ccc5ccccc5c4O)o3)o2)ccc2ccccc12 | > 100 | > 100 |  | > 100 | > 100 | > 100 | > 100 |  | > 100 | > 100 |  |  |  |  |  |  |  |  |  | 
COc1ccc(C2=C(Cl)C(=O)O/C2=C\c2ccc(OC)c(Br)c2)cc1Cl | 90.8 | > 100 | > 100 | > 100 |  | > 100 | > 100 | > 100 | 74.9 | > 100 |  |  |  |  |  |  |  |  |  | 
c1c(N2CCOCC2)ssc1=[N+]1CCOCC1 | > 100 | > 100 | > 100 | > 100 | > 100 |  | > 100 |  | > 100 | > 100 |  |  |  |  |  |  |  |  |  | 
CC(=O)OC1CC2(O)C(CCC3(C)C(c4ccc(=O)oc4)CCC32O)C2(C)C1=CC(O)C1OC12 (stereo not drawn) | 0.157 | 0.32 | 1.28 | 2.89 | 0.643 |  | 0.252 |  | 0.117 | 0.323 |  |  |  |  |  |  |  |  |  | 
O=C1/C(=C/c2ccc(Cl)cc2)CCCc2ccc(F)cc21 | 61 | > 100 | > 100 | > 100 | 41.8 | 48.3 | 69.4 |  | 47 | 35.9 | 27.9 | 22.1 | 17.2 | 24.2 | 16.8 | 15.9 | 24.7 | 16.1 | 15.8 | 
C=C(C)[C@H]1CC(=O)/C(C)=C\CC/C(C)=C/CC[C@@]2(C)O[C@@H]2C1 |  | > 100 | 66.2 | 33.7 |  | 64.5 | 59 |  | 26.2 | 48.4 |  |  |  |  |  |  |  |  |  | 
O=C1/C(=C/c2ccncc2)C(n2cccc2)c2c(Br)sc(Br)c21 (stereo not drawn) | 8.87 | 11.1 | 4.68 | 23.5 |  | 16.1 | 20.7 | 16.4 | 7.5 | 5.42 |  |  |  |  |  |  |  |  |  | 
CCOC(=O)Cn1nnc2cc(Nc3c(C)[n+]([O-])c4cc(F)c(OCC)cc4[n+]3[O-])ccc21 | > 100 | > 100 | > 100 | > 100 | > 100 | > 100 | > 100 | > 100 |  | > 100 |  |  |  |  |  |  |  |  |  | 
CCOc1snc(C(Cl)(Cl)Cl)c1Cl | 79.4 | > 100 | 37.7 | 28.9 | 32.5 | > 100 | > 100 |  | > 100 | 45.5 |  |  |  |  |  |  |  |  |  | 
CCN(CCCCCCCCCCN1CC(=O)N(CCCCCCCCCCN(CC)Cc2ccccc2OC)CC1=O)Cc1ccccc1OC | 8.14 | 5.34 | 3.6 |  | 3.94 | 2.59 | 3.68 | 6.33 | 3.89 | 3.25 | 1.82 | 1.55 | 1.02 |  | 1.96 | 1.14 | 1.83 | 2.06 | 1.09 | 1.99
CC[N+]1(C)CCC(O)(c2ccc(C)cc2)C(C(=O)c2ccc(C)cc2)C1 (stereo not drawn) | > 100 | 45.9 | > 100 | > 100 | > 100 | > 100 | > 100 |  | > 100 | > 100 |  |  |  |  |  |  |  |  |  | 
Cc1cccc(NS(=O)(=O)c2ccc(N=Nc3c(O)c(C(=O)O)cc4ccccc34)cc2)n1 | > 100 | > 100 | > 100 | > 100 | > 100 | > 100 | > 100 |  | > 100 | > 100 |  |  |  |  |  |  |  |  |  | 
S=c1[nH]nc(Cn2c3ccc(Br)cc3c3nc4ccccc4nc32)n1C1CCCCC1 | > 100 | > 100 |  | > 100 | > 76.6 | > 66.9 | 83.7 | > 100 | 41.1 | > 76.2 |  |  |  |  |  |  |  |  |  | 
Cc1nc(SCC(N)=O)c2sc(=S)n(-c3ccccc3)c2n1 | > 10 | > 10 | > 10 | > 10 | > 10 | > 10 | > 10 | > 10 | > 10 |  |  |  |  |  |  |  |  |  |  | 
O=c1c(-c2ccccc2)c(SCCN2CCCCCC2)n(-c2ccccc2)c(=S)n1-c1ccccc1 | 35.7 | > 100 | 46.9 |  | > 100 |  | > 100 |  | > 100 |  |  |  |  |  |  |  |  |  |  | 
CCCCCCCCCCCCNC(=O)CCC(NC(=O)c1ccc(N(C)Cc2cnc3nc(N)nc(N)c3n2)cc1)C(=O)NCCCCCCCCCCCC (stereo not drawn) | > 100 | > 100 | 87.1 | > 100 | > 100 | > 100 |  | 61.5 | > 100 | > 100 |  |  |  |  |  |  |  |  |  | 
CCCO/N=[N+](\[O-])N(CC)CC | > 100 | > 100 | > 100 | > 100 | > 100 |  | > 100 |  | > 100 | > 100 |  |  |  |  |  |  |  |  |  | 
